Consider three compounds from patent US9890185B2, “Urea derivatives useful as kinase inhibitors” (Respivert Limited, priority 2013, dated 2018).

Data set [1] has as its system endotoxin (LPS)-induced uveitis. Kind of data set: Endotoxin-induced uveitis in rats (in vivo assay vi). To be noted: eyes of LPS-stimulated rats, topical, 1 mg/mL. More on the design: species or system Lewis rats. As for the experimental part: Male, Lewis rats (6-8 weeks old, Charles River UK Limited) are housed in cages of 3 at 19-21° C. with a 12 h light/dark cycle (07:00/19:00) and fed a standard diet of rodent chow and water ad libitum. […] Untreated rats are injected with PBS. […] Before administration, the solution or suspension to be administered is agitated for 5 minutes to ensure a uniform suspension. 6 hours after LPS dosing, animals are euthanized by overdose with pentobarbitone (i.v.). Following euthanasia, the right eye of each animal is enucleated and dissected into front (anterior) and back (posterior) sections around the lens. Each section is weighed and homogenised in 500 μL of sterile phosphate buffered saline followed by 20 minutes centrifugation at 12000 rpm at 4° C. The resulting supernatant is divided into 3 aliquots and stored at −80° C. until subsequent cytokine analysis by R&D DuoSet ELISA.

The target in data set [2] is p38 MAPKα isoform (MAPK14) (Homo sapiens (Human), UniProt Q16539). Kind of data set: p38 MAPKα enzyme inhibition (FRET, Z-LYTE, Method 2). It is filed as biochemical. Put shortly: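 Z-LYTE FRET: p38 MAPKα (80 ng/mL for Method 1, 200 ng/mL for Method 2, pre-dilution) preincubated 2 hr RT with compound (4–0.004 μg/mL solutions), activity read via MAPKAP-K2 phosphorylation after 1 hr RT and 1 hr protease development. Coumarin/fluorescein ratio gives phosphorylation; % inhibition versus uninhibited control, IC50 from concentration-response curve.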

The target of another data set is c-Src (Homo sapiens (Human), UniProt P12931). Kind of data set: c-Src enzyme inhibition (FRET, Z-LYTE). The format is biochemical. Put shortly:
(§1)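 Read-out is the coumarin-to-fluorescein emission ratio after protease cleavage of unphosphorylated peptide, with IC50 taken from concentration-response data. Compounds were tested at four levels (added solutions 4–0.004 μg/mL) after 2 hr enzyme preincubation at RT; kinase reaction ran 1 hr with ATP solutions of 800 μM (c-Src) or 60 μM (Syk).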

A further data set concerns the target Syk (Homo sapiens (Human), UniProt P43405). As to the kind of experiment: Syk enzyme inhibition (FRET, Z-LYTE). It is filed as biochemical. Put shortly:
as §1

Another data set has as its target GSK 3α (Homo sapiens (Human), UniProt P49840). Kind of data set: GSK 3α enzyme inhibition (FRET, Z-LYTE, Method 2). It is filed as biochemical. To be noted: read-out: IC50 Values for Enzyme Inhibition, GSK3α. Put shortly: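 Phosphorylation of a dual-labelled synthetic peptide by human GSK3α is read as a coumarin/fluorescein ratio after protease development. Compound stocks run 4 to 0.004 μg/mL, and ATP stock is 40 μM.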

For data set [3], the system named is PBMCs. As to the kind of experiment: LPS-induced IL-8 release in PBMC cells (assay b). It is filed as cell-based, human. To be noted: Homo sapiens, PBMC; LPS-stimulated PBMCs; read-out: IC50 Values for Inhibition of Cytokine Release, PBMCs IL-8. Put shortly:
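Human PBMCs from healthy donors, isolated by density gradient, were pretreated with compound for 2 h and then stimulated with 1 ng/mL LPS (E. coli 0111:B4) for 24 h at 37° C, 5% CO2. Supernatant IL-8 and TNFα were measured by sandwich ELISA, and IC50 was taken from the dose-response curve.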

For data set [4], the system named is PBMCs. As to the kind of experiment: IL-2 release in CD3/CD28 stimulated PBMC cells (assay c). It is filed as cell-based. To be noted: Homo sapiens, read-out: IC50 Values for Inhibition of Cytokine Release, PBMCs IL-2. Put shortly:
(§2)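 Compound added to human PBMCs on anti-CD3/anti-CD28-coated wells (0.3 and 3 μg/mL respectively); 3-day culture. Sandwich ELISA of supernatant IL-2 or IFN gamma gives the read-out, with IC50 derived from the dose-response curve.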

The test system of data set [5] is PBMCs. As to the kind of experiment: IFN gamma release in CD3/CD28 stimulated PBMC cells (assay c). To be noted: Homo sapiens, read-out: IC50 Values for Inhibition of Cytokine Release, PBMCs IFNγ. It is filed as cell-based. Put shortly: as §2
The next data set has as its system HT29 cells. As to the kind of experiment: IL-1β-induced IL-8 release in HT29 cells (assay d). To be noted: Homo sapiens, HT-29; IL-1β-stimulated HT29 cells; read-out: IC50 Values for Inhibition of Cytokine Release, HT29 cells IL-8. The format is cell-based. As for the experimental part: HT29 cells, a human colon adenocarcinoma cell line, are plated in a 96 well plate (24 hrs) and pre-treated with compounds at the desired concentration for 2 hours before addition of 5 ng/mL of IL-1β (Abcam) for 24 hours. Supernatants are harvested for IL-8 quantification by Sandwich ELISA (Duo-set, R&D System). The IC50 is determined from the dose response curve.

Data set [6] relates to PBMCs. Kind of data set: Cell mitosis assay in PBMCs (assay g). The format is cell-based. Particulars: Homo sapiens, PBMC, test compound 5 μg/mL. Put shortly:
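Human PBMCs from healthy donors, stimulated with 2% PHA for 48 hr, then exposed to test compounds for 20 hr, with demecolcine (0.1 μg/mL) added 2 hr before harvest. Cells fixed/permeabilised, stained for phospho-histone 3 and propidium iodide, and read by flow cytometry gated on lymphocytes. % mitosis inhibition vs 0.5% DMSO vehicle.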

The nature of data set [7]: Solubility in fasted-state simulated colonic fluid (FaSSCoF). It is filed as physicochemical. To be noted: thermodynamic from solid, pH 6.5, 25° C.; for solubility thermodynamic at 24 h: 25 °C, pH 6.5, fassgf or other biorelevant. On the procedure:
The solubilities of compounds of the invention in FaSSCoF at pH 6.5 are determined using a modification of a previously-reported procedure (Vertzoni, M., et al. Pharm. Res. 2010, 27, 2187-2196). In place of the bile salt extract employed in the original procedure (which extract is no longer available), the modified procedure uses a mixture of sodium taurochlorate (0.15 g), glycocholic acid (0.15 g), ursodeoxycholic acid (0.05 g), cholic acid (0.05 g), and glycodeoxycholic acid (0.05 g). These five bile acids are ground together with a mortar and pestle to produce a fine white powder that is incorporated into the FaSSCoF, as outlined below.
Tris(hydroxymethyl)aminomethane (Tris; 0.275 g) and maleic acid (0.44 g) are dissolved in water (35 mL) to give a solution whose pH is adjusted to 6.5 by treatment with 0.5M NaOH (ca. 12 mL). The solution is then made up to 50 mL with water. A portion of this Tris/maleate buffer solution (ca. 25 mL) is added to a 0.5 L round-bottomed flask, before being treated with 0.00565 g of the bile acid mixture described above. Solutions of phosphatidylcholine (0.0111 g) in DCM (0.15 mL) and palmitic acid (0.0013 g) in DCM (0.15 mL) are added, then the organic solvent is evaporated off under reduced pressure at 40° C. until a clear solution, with no perceptible DCM odour, is achieved. The volume of the evaporated solution is adjusted to 50 mL by addition of the remainder of Tris/maleate buffer, then BSA (0.115 g) is added, before being dissolved by gentle agitation.
Test compounds are suspended in the pH 6.5 FaSSCoF medium to give a maximum final concentration of ca. 6 mg/mL. The suspensions are equilibrated at 25° C. for 24 h, before being filtered through a glass fibre C filter. The filtrates are then diluted as appropriate for injection and quantification by HPLC with reference to a standard. Different volumes of the standard, diluted and undiluted sample solutions are injected and the solubilities are calculated using the peak areas determined by integration of the peak found at the same retention time as the principal peak in the standard injection.

The term pIC50 denotes the negative decadic logarithm of the IC50, by convention in mol/L. By inhibition is commonly meant the share of the control response that was lost under treatment. The low end stands for a response near the control, the high end for a response far below the control. Broadly, the solubility is the dissolved amount per volume that the medium holds.

pIC50: −log10 of the molar value. Converted amounts (≈) assume the structure as drawn. Read-outs that look alike come from different tables or passages of the source.

p38 MAPKα isoform (MAPK14), sequence (Q16539 whole entry, canonical isoform): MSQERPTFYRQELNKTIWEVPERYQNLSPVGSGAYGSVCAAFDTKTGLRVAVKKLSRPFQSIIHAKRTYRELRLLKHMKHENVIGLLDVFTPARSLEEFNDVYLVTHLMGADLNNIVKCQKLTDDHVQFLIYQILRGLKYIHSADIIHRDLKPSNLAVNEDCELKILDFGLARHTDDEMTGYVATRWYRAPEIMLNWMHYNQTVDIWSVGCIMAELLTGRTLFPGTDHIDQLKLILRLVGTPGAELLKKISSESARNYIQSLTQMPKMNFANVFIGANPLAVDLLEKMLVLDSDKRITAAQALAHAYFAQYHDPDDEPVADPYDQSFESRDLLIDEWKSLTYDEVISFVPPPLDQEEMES
GSK 3α, sequence (P49840 whole entry): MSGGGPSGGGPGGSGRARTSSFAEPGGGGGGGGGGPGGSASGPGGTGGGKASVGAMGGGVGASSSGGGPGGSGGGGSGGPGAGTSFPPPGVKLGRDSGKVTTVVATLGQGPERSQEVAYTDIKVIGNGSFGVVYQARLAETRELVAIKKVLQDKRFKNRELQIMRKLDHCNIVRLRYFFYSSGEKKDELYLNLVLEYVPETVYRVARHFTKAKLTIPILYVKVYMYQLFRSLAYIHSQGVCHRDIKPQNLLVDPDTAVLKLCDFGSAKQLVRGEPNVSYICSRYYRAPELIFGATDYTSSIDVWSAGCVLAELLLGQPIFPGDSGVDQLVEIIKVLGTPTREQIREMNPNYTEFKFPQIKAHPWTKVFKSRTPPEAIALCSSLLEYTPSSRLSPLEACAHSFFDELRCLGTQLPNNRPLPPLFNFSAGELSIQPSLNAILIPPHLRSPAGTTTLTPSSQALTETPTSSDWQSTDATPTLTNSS
c-Src, sequence (P12931 whole entry, looked up): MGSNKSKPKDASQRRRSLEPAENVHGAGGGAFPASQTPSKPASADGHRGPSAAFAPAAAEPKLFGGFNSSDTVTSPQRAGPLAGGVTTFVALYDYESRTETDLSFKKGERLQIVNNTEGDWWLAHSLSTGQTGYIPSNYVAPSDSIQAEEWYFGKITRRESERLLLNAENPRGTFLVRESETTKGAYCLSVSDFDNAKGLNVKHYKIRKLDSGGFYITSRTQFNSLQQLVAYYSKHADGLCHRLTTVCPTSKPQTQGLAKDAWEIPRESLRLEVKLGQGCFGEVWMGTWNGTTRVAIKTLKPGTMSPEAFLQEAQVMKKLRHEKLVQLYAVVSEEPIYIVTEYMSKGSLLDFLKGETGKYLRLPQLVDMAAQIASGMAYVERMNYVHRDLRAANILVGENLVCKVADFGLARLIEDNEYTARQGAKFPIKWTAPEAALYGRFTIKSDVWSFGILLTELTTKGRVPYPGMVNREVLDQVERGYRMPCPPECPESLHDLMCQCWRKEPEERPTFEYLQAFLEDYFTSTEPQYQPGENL

`C[C@@H]1C[C@H]2[C@@H]3CCC4=CC(=O)C=C[C@]4(C)[C@@]3(F)[C@@H](O)C[C@]2(C)[C@@]1(O)C(=O)CO` [Dexamethasone, dexamethasone, reference compound] showed a Cell counts in data set [1] of 30.1 ± 6.4.

With `COc1cc(Nc2cc(Oc3ccc(NC(=O)Nc4cc(C(C)(C)C)cc(CC(N)=O)c4OC)c4ccccc34)ccn2)cc(C(N)=O)c1` [Example 47, 3-((4-((4-(3-(3-(2-Amino-2-oxoethyl)-5-(tert-butyl)-2-methoxyphenyl)ureido)naphthalen-1-yl)oxy)pyridin-2-yl)amino)-5-methoxybenzamide], the pIC50 in data set [2] was 7.44; against c-Src, 7.47; against Syk it was under 5.82; at GSK 3α, 5.83; with PBMCs [3] it was 8.66; in the data set with PBMCs [4] it was 7.24. Further, the results for the pIC50 in the data set with PBMCs [5] and in the data set with HT29 cells were 8.52 and 7.58, respectively. The same compound displayed an inhibition at 5 µg/mL with PBMCs [6] of 30.1%.

Turning to `COc1cc(Nc2cc(Oc3ccc(NC(=O)Nc4cc(C(C)(C)C)cc([S+](C)[O-])c4OC)c4ccccc34)ccn2)cc(C(=O)NCCN2CCN(C)CC2)c1` (centres unmarked) [Example 84, 3-((4-((4-(3-(5-(tert-Butyl)-2-methoxy-3-(methylsulfinyl)phenyl)ureido)naphthalen-1-yl)oxy)pyridin-2-yl)amino)-5-methoxy-N-(2-(4-methylpiperazin-1-yl)ethyl)benzamide], the pIC50 in the data set with PBMCs [3] is 8.74. For the same compound, the solubility thermodynamic at 24 h is 15 µg/mL (≈ 18.9 µM) in data set [7] (Run 1, read-out: pH 6.5 FaSSCoF Solubility Run 1) and 16 µg/mL (≈ 20.2 µM) in [7] (Run 2, read-out: pH 6.5 FaSSCoF Solubility Run 2). Also, in [7] (fassgf or other biorelevant, read-out: Solubility in the FaSSCoF medium), the solubility at 24 h was over 10 µg/mL.
